Take `CCCCn1c(=O)c2cc(OC)c(OC)cc2c2nnc3cc4c(cc3c21)OCO4` [Example 10, 2,3-Dimethoxy-8,9-methylenedioxy-11-(n-butyl)-11H-5,6,11-triazachrysen-12-one]: the melting point (in general, the temperature, or range, at which the solid turns liquid) is 299 °C. The same measure for `CCCCn1c(=O)c2cc(OC)c(OC)cc2c2cnc3cc4c(cc3c21)OCO4` [Example 11, 8,9-Dimethoxy-2,3-methylenedioxy-5-(butyl)-5H-dibenzo[c,h]1,6-naphthyridin-6-one]: 224 °C (dec.); for `COc1cc2c(cc1OC)-c1cnc3cc4c(cc3c1OC2)OCO4` [Example 12, 8,9-Dimethoxy-2,3-methylenedioxy-6H-5-oxa-12-aza-chrysene]: 239 to 242 °C (dec.).
